Where two headings read alike, the source gives them in different places.
Tests used:
HIV-1 strain LAI = test: Cellular anti-HIV assay in MT4 cells (MTT), wild type laboratory strain; type: cell-based; conditions: read-out: EC50 value against HIV-1 strain LAI
Experimental: The compounds of the present invention were examined for anti-viral activity in a cellular assay. […] The cellular assay was performed according to the following procedure.
Cellular Assay Experimental Method:
HIV- or mock-infected MT4 cells were incubated for five days in the presence of various concentrations of the inhibitor. At the end of the incubation period, all HIV-infected cells have been killed by the replicating virus in the control cultures in the absence of any inhibitor. Cell viability is measured by measuring the concentration of MTT, a yellow, water soluble tetrazolium dye that is converted to a purple, water insoluble formazan in the mitochondria of living cells only. Upon solubilization of the resulting formazan crystals with isopropanol, the absorbance of the solution is monitored at 540 nm. The values correlate directly to the number of living cells remaining in the culture at the completion of the five day incubation. The inhibitory activity of the compound was monitored on the virus-infected cells and was expressed as EC50 and EC90. These values represent the amount of the compound required to protect 50% and 90%, respectively, of the cells from the cytopathogenic effect of the virus. The toxicity of the compound was measured on the mock-infected cells and was expressed as CC50, which represents the concentration of compound required to inhibit the growth of the cells by 50%. The selectivity index (SI) (ratio CC50/EC50) is an indication of the selectivity of the anti-HIV activity of the inhibitor.

virus strain S (R13080) = test: microbe, parasite or virus in culture; type: cell-based, HIV; conditions: FR=EC50(mutant strain)/EC50(HIV-1 strain LAI); strain S
Procedure, shortened: (§1)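 MT4 cells, HIV or mock infection, 5 d with compound dilutions; MTT readout, formazan in isopropanol, A540. EC50/EC90 = conc. protecting 50/90% of cells from CPE; CC50 from mock-infected cells. FR = EC50 mutant/EC50 LAI.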

virus strain F (R13025) = test: microbe, parasite or virus in culture; type: cell-based, HIV; conditions: FR=EC50(mutant strain)/EC50(HIV-1 strain LAI); strain F
Procedure, shortened: as §1

[1] = tested on: clinically isolated HIV strain T; type: cell-based; conditions: FR=EC50(mutant strain)/EC50(HIV-1 strain LAI)
Procedure, shortened: as §1

[2] = tested on: clinically isolated HIV strain O; type: cell-based; conditions: FR=EC50(mutant strain)/EC50(HIV-1 strain LAI)
Procedure, shortened: as §1

[3] = tested on: clinically isolated HIV strain H; type: cell-based; conditions: FR=EC50(mutant strain)/EC50(HIV-1 strain LAI)
Procedure, shortened: as §1

[4] = tested on: clinically isolated HIV strain I; type: cell-based; conditions: FR=EC50(mutant strain)/EC50(HIV-1 strain LAI)
Procedure, shortened: as §1

[5] = tested on: clinically isolated HIV strain J; type: cell-based; conditions: FR=EC50(mutant strain)/EC50(HIV-1 strain LAI)
Procedure, shortened: as §1

[6] = Human immunodeficiency virus 1, MT4, 120 h
[7] = Human immunodeficiency virus 1, 120 h, MT4 cells, five days, MTT

Structure (SMILES) | EC50 (HIV-1 strain LAI; [6]) [nM] | fold resistance (FR), strain S (virus strain S (R13080)) | fold resistance (FR), strain F (virus strain F (R13025)) | EC50 (HIV-1 strain LAI; [7]) [nM] | fold resistance (FR), strain T [1] | fold resistance (FR), strain O [2] | fold resistance (FR), strain H [3] | fold resistance (FR), strain I [4] | fold resistance (FR), strain J [5]
CC(=O)N(C)c1nc2ccc(S(=O)(=O)N(Cc3ccccn3)CC(O)C(Cc3ccccc3)NC(=O)OCc3c(C)cccc3C)cc2s1 (stereo not shown) [Compound 31] | > 500 | – | – | – | – | – | – | – | –
CC(=O)N(C)c1nc2ccc(S(=O)(=O)N(Cc3ccccn3)CC(O)C(Cc3ccccc3)NC(=O)OC3COC4OCCC34)cc2s1 (stereo not shown) [Compound 33] | – | 467.3 | 7.6 | < 50 | 467.3 | 3.4 | 6.8 | 7.1 | 5.9
CC(C)CN(CC(O)C(Cc1ccccc1)NC(=O)OC1COCC1N(C)C)S(=O)(=O)c1ccc2nc(NCCN(C)C)sc2c1 (stereo not shown) [Compound 44] | 50 to 500 | 89.3 | 80.2 | – | 89.3 | 11.2 | 29.4 | 7.5 | 29.5
CC(C)CN(CC(O)C(Cc1ccccc1)NC(=O)OC1CCOC1)S(=O)(=O)c1ccc2nc(NCCN(C)C)sc2c1 (stereo not shown) [Compound 56] | < 50 | 67.1 | 33.1 | – | 509.6 | 2.1 | 4.6 | 3.2 | 2.8
CC(=O)N(C)c1nc2ccc(S(=O)(=O)N(CC(C)C)C[C@@H](O)[C@H](Cc3ccccc3)NC(=O)c3cccc(N)c3C)cc2s1 [Compound 82] | – | 17.9 | 13.8 | – | 214.1 | 8.0 | 5.0 | 4.4 | 5.5
CC(=O)N(C)c1nc2ccc(S(=O)(=O)N(CC(C)C)C[C@@H](O)[C@H](Cc3ccccc3)NC(=O)c3cccc(O)c3C)cc2s1 [Compound 83] | – | 132.1 | 106.6 | – | 438.6 | 1.5 | 4.6 | 7.4 | 8.4
CC(=O)Nc1nc2ccc(S(=O)(=O)N(CC(C)C)C[C@@H](O)[C@H](Cc3ccccc3)NC(=O)Cc3cc(C)no3)cc2s1 [Compound 84] | – | 195.4 | 54.3 | – | 195.4 | 6.1 | 11.7 | 13.0 | 19.6
CCN1CCCC1CNc1nc2ccc(S(=O)(=O)N(CC(C)C)C[C@@H](O)[C@H](Cc3ccccc3)NC(=O)O[C@H]3CO[C@H]4OCC[C@H]43)cc2s1 (stereo partly shown) [Compound 93] | – | 4.68 | 1.1 | < 50 | – | – | – | – | –

From patent US7659404B2, “Broad spectrum 2-(substituted-amino)-benzothiazole sulfonamide HIV protease inhibitors” (Tibotec Pharmaceuticals Ltd., priority 2001, dated 2010)
